One compound from publication PMC9571063 (Molecules, 2022) can be followed below.

Common to all, as to test: KINOMEscan
Holding throughout (format): binding
Common to all, as to details: read-out: Percent Control

One assay deals with T1, PRKX (Homo sapiens, UniProt P51817).
T1 construct: purchased Eurofins DiscoverX KINOMEscan (scanMAX 468)

In assay [1] the target is T2, ABL1(F317L)-phosphorylated (Homo sapiens, UniProt P00519, F317L).
T2 construct: purchased Eurofins DiscoverX KINOMEscan (scanMAX 468)
T2 sequence (P00519 whole entry F317L): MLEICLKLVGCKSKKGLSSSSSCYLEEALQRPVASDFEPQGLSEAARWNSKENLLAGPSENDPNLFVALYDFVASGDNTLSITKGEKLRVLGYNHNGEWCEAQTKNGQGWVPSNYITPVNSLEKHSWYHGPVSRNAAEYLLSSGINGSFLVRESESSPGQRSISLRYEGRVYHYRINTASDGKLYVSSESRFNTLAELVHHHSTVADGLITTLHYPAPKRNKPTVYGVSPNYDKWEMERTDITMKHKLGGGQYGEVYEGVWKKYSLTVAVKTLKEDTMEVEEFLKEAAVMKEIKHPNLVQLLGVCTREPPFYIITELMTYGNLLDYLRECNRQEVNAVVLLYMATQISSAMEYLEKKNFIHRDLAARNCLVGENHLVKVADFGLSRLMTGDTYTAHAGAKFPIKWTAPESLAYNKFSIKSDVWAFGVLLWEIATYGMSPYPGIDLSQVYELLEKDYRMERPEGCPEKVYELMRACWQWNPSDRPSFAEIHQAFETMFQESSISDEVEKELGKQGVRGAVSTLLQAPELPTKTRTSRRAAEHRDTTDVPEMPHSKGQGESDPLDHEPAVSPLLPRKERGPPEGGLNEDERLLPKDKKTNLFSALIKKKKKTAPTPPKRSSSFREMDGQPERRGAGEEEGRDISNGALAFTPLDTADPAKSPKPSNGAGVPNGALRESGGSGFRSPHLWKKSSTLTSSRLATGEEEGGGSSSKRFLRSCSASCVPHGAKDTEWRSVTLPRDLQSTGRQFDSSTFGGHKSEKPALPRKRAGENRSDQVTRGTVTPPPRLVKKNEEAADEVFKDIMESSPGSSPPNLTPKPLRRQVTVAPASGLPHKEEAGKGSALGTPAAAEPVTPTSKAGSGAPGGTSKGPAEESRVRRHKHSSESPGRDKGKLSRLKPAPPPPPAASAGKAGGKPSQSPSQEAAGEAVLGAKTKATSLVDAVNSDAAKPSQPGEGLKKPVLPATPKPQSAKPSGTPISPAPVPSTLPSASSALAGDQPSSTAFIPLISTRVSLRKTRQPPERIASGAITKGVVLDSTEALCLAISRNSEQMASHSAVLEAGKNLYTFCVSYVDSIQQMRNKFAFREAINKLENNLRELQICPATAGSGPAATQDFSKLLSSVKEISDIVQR

The next assay has as its target T3, STK16 (Homo sapiens, UniProt O75716).
T3 construct: purchased Eurofins DiscoverX KINOMEscan (scanMAX 468)

The next assay deals with T4, MAP3K4 (Homo sapiens, UniProt Q9Y6R4).
T4 construct: purchased Eurofins DiscoverX KINOMEscan (scanMAX 468)
T4 sequence (Q9Y6R4 whole entry): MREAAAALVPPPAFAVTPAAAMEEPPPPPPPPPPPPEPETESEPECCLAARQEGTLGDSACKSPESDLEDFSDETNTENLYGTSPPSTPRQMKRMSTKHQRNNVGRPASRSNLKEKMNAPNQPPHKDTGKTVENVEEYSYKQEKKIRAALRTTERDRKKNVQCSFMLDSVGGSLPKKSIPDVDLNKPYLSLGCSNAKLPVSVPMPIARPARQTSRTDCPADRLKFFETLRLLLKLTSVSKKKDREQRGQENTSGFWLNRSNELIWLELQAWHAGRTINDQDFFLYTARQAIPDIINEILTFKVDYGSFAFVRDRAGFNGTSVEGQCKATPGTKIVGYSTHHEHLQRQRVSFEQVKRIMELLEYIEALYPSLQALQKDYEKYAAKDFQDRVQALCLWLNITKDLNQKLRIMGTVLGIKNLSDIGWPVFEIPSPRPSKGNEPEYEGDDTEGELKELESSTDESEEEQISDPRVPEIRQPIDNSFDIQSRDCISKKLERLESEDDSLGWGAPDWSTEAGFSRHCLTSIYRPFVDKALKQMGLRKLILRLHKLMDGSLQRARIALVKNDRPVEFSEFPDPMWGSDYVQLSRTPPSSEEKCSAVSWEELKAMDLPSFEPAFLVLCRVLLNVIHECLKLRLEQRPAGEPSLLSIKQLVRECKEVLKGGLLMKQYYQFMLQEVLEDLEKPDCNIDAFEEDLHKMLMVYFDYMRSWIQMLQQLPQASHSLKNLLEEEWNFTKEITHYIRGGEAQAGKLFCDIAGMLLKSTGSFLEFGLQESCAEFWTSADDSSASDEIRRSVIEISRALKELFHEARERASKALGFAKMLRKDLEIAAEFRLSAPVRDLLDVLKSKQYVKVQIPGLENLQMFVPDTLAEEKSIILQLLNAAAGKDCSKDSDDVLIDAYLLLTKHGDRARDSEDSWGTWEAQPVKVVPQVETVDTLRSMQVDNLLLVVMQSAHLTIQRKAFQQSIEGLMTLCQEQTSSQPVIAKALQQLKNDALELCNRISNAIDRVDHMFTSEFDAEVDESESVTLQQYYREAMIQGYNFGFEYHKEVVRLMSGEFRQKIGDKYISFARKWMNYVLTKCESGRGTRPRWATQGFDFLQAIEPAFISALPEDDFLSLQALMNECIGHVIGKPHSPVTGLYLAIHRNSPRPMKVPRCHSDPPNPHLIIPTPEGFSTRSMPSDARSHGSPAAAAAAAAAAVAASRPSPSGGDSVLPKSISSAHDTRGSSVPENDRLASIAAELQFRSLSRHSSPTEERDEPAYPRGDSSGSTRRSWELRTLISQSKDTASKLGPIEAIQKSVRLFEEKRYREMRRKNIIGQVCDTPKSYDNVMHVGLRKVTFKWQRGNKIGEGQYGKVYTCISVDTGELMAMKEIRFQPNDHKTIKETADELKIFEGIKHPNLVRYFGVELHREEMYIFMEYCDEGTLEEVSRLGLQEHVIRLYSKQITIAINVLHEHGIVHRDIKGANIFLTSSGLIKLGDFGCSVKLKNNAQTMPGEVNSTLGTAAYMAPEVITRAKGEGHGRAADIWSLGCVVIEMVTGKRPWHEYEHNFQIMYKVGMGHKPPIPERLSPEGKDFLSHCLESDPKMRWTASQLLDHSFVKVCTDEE

Assay [2] has as its target T5, JAK3(JH1domain-catalytic) (Homo sapiens, UniProt P52333).
T5 construct: JAK3(JH1domain-catalytic); purchased Eurofins DiscoverX KINOMEscan (scanMAX 468)

T5 sequence (P52333 813-1124 limits assumed): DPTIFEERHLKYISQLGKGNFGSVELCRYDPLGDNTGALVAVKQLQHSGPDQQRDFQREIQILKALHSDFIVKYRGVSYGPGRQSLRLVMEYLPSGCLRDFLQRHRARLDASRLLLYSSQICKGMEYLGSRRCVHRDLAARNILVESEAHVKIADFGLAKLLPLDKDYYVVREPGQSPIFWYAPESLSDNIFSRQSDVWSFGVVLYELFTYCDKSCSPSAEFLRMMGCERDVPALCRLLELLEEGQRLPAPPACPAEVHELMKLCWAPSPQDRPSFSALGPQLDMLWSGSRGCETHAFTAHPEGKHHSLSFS
T1 sequence (P51817 whole entry): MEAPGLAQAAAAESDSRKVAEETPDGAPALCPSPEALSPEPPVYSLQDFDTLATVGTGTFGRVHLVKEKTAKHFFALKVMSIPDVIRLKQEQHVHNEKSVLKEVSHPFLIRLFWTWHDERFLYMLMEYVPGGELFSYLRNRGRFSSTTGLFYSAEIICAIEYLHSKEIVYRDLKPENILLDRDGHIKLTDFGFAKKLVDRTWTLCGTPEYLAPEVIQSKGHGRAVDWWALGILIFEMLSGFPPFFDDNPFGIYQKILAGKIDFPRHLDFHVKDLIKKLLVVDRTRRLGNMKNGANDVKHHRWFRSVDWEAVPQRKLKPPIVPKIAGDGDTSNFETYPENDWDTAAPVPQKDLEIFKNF
T3 sequence (O75716 whole entry): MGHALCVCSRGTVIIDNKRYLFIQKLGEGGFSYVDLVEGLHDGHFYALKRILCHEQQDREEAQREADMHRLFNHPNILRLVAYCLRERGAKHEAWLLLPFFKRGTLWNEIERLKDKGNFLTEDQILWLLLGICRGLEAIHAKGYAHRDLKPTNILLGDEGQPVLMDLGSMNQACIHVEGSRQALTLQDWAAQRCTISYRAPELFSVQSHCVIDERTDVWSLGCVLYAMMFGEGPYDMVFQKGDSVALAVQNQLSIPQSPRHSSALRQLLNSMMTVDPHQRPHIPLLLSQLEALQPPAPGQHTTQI

For `Cc1ccc(-n2cc(COc3cccc4cnc(Nc5cccc(Cl)c5)nc34)nn2)c([N+](=O)[O-])c1` [DB18], the remaining binding at 1 µM on PRKX was 97%; in assay [1] it was 100%; on STK16, 41%; at MAP3K4, 100%; in assay [2], 93%.
